{"source": "PubChem BioAssay (NCI)", "test_in_all_cases": "inhibition of tumour cell growth, NCI panel, 48 h", "key": {"SNB-19 CNS": {"test_system": "SNB-19 CNS"}, "HOP-92 NSCLC": {"test_system": "HOP-92 NSCLC"}, "COLO 205 colon": {"test_system": "COLO 205 colon"}, "UO-31 renal": {"test_system": "UO-31 renal"}, "KM20L2 colon": {"test_system": "KM20L2 colon"}, "RPMI-8226 leukemia": {"test_system": "RPMI-8226 leukemia"}, "ACHN renal": {"test_system": "ACHN renal"}, "SR leukemia": {"test_system": "SR leukemia"}, "HL-60(TB) leukemia": {"test_system": "HL-60(TB) leukemia"}, "IGROV1 ovarian": {"test_system": "IGROV1 ovarian"}}, "note": "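In this assay, cells in 96-well plates receive the compound at five concentrations for 48 hours. Endpoints are linearly interpolated between the surrounding concentrations. At the GI50, growth is halved. TGI: concentration producing complete growth inhibition.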", "data": [{"smiles": "COc1ccc(C(=O)NCCN(C)C)c2nc3ccccc3nc12", "values": [{"measurement": "TGI", "setting": "SNB-19 CNS", "result": "> 53", "unit": "µM"}, {"measurement": "TGI", "setting": "HOP-92 NSCLC", "result": "> 27.4", "unit": "µM"}, {"measurement": "TGI", "setting": "COLO 205 colon", "result": "> 26.1", "unit": "µM"}, {"measurement": "TGI", "setting": "UO-31 renal", "result": "> 52", "unit": "µM"}, {"measurement": "TGI", "setting": "KM20L2 colon", "result": 26.5, "unit": "µM"}, {"measurement": "TGI", "setting": "RPMI-8226 leukemia", "result": "> 100", "unit": "µM"}, {"measurement": "TGI", "setting": "ACHN renal", "result": "> 100", "unit": "µM"}, {"measurement": "TGI", "setting": "SR leukemia", "result": 23.3, "unit": "µM"}]}, {"smiles": "O=C(Nc1ccc(Cl)c(Cl)c1)NS(=O)(=O)c1cnccc1Oc1ccc(F)cc1", "values": [{"measurement": "GI50", "setting": "SNB-19 CNS", "result": 4.29, "unit": "µM"}, {"measurement": "TGI", "setting": "SNB-19 CNS", "result": "> 100", "unit": "µM"}, {"measurement": "GI50", "setting": "HL-60(TB) leukemia", "result": 2120, "unit": "nM"}, {"measurement": "TGI", "setting": "HL-60(TB) leukemia", "result": 7.19, "unit": "µM"}, {"measurement": "GI50", "setting": "HOP-92 NSCLC", "result": 2770, "unit": "nM"}, {"measurement": "TGI", "setting": "HOP-92 NSCLC", "result": 8.47, "unit": "µM"}, {"measurement": "GI50", "setting": "COLO 205 colon", "result": 2970, "unit": "nM"}, {"measurement": "TGI", "setting": "COLO 205 colon", "result": 7.59, "unit": "µM"}, {"measurement": "GI50", "setting": "UO-31 renal", "result": 2620, "unit": "nM"}, {"measurement": "TGI", "setting": "UO-31 renal", "result": 9.51, "unit": "µM"}, {"measurement": "GI50", "setting": "RPMI-8226 leukemia", "result": 2010, "unit": "nM"}, {"measurement": "TGI", "setting": "RPMI-8226 leukemia", "result": 5.36, "unit": "µM"}, {"measurement": "GI50", "setting": "ACHN renal", "result": 3220, "unit": "nM"}, {"measurement": "TGI", "setting": "ACHN renal", "result": "> 100", "unit": "µM"}, {"measurement": "GI50", "setting": "SR leukemia", "result": 2550, "unit": "nM"}, {"measurement": "TGI", "setting": "SR leukemia", "result": 10.2, "unit": "µM"}, {"measurement": "GI50", "setting": "IGROV1 ovarian", "result": 2690, "unit": "nM"}, {"measurement": "TGI", "setting": "IGROV1 ovarian", "result": 8.59, "unit": "µM"}]}, {"smiles": "O=C(/C=C/c1ccccc1)c1ccc(NCc2nc3ccccc3[nH]2)cc1", "values": [{"measurement": "TGI", "setting": "SNB-19 CNS", "result": 15.9, "unit": "µM"}, {"measurement": "TGI", "setting": "HL-60(TB) leukemia", "result": "> 22.3", "unit": "µM"}, {"measurement": "TGI", "setting": "HOP-92 NSCLC", "result": 22.5, "unit": "µM"}, {"measurement": "TGI", "setting": "COLO 205 colon", "result": 11.1, "unit": "µM"}, {"measurement": "TGI", "setting": "UO-31 renal", "result": 20.2, "unit": "µM"}, {"measurement": "TGI", "setting": "KM20L2 colon", "result": 9.06, "unit": "µM"}, {"measurement": "TGI", "setting": "ACHN renal", "result": 20.4, "unit": "µM"}, {"measurement": "TGI", "setting": "SR leukemia", "result": "> 35.3", "unit": "µM"}, {"measurement": "TGI", "setting": "IGROV1 ovarian", "result": 19.8, "unit": "µM"}]}, {"smiles": "O=c1oc2ccc(I)cc2c(=O)n1-c1ccc(Cl)cc1F", "values": [{"measurement": "GI50", "setting": "SNB-19 CNS", "result": 0.64, "unit": "µM"}, {"measurement": "TGI", "setting": "SNB-19 CNS", "result": 58.7, "unit": "µM"}, {"measurement": "GI50", "setting": "HL-60(TB) leukemia", "result": 1370, "unit": "nM"}, {"measurement": "TGI", "setting": "HL-60(TB) leukemia", "result": 7.51, "unit": "µM"}, {"measurement": "GI50", "setting": "HOP-92 NSCLC", "result": 181, "unit": "nM"}, {"measurement": "TGI", "setting": "HOP-92 NSCLC", "result": 0.726, "unit": "µM"}, {"measurement": "GI50", "setting": "COLO 205 colon", "result": 4960, "unit": "nM"}, {"measurement": "TGI", "setting": "COLO 205 colon", "result": 19.9, "unit": "µM"}, {"measurement": "GI50", "setting": "UO-31 renal", "result": 301, "unit": "nM"}, {"measurement": "TGI", "setting": "UO-31 renal", "result": 3.24, "unit": "µM"}, {"measurement": "GI50", "setting": "RPMI-8226 leukemia", "result": 758, "unit": "nM"}, {"measurement": "TGI", "setting": "RPMI-8226 leukemia", "result": 6.12, "unit": "µM"}, {"measurement": "GI50", "setting": "ACHN renal", "result": 1620, "unit": "nM"}, {"measurement": "TGI", "setting": "ACHN renal", "result": 12.8, "unit": "µM"}, {"measurement": "GI50", "setting": "SR leukemia", "result": 1130, "unit": "nM"}, {"measurement": "TGI", "setting": "SR leukemia", "result": "> 100", "unit": "µM"}, {"measurement": "GI50", "setting": "IGROV1 ovarian", "result": 1190, "unit": "nM"}, {"measurement": "TGI", "setting": "IGROV1 ovarian", "result": 21.1, "unit": "µM"}]}, {"smiles": "O=C(N/N=C/c1ccccc1O)c1ccccc1", "values": [{"measurement": "GI50", "setting": "SNB-19 CNS", "result": 6.22, "unit": "µM"}, {"measurement": "TGI", "setting": "SNB-19 CNS", "result": "> 100", "unit": "µM"}, {"measurement": "GI50", "setting": "HL-60(TB) leukemia", "result": 2320, "unit": "nM"}, {"measurement": "TGI", "setting": "HL-60(TB) leukemia", "result": 8.05, "unit": "µM"}, {"measurement": "GI50", "setting": "HOP-92 NSCLC", "result": 5840, "unit": "nM"}, {"measurement": "TGI", "setting": "HOP-92 NSCLC", "result": "> 100", "unit": "µM"}, {"measurement": "GI50", "setting": "COLO 205 colon", "result": 750, "unit": "nM"}, {"measurement": "TGI", "setting": "COLO 205 colon", "result": "> 100", "unit": "µM"}, {"measurement": "GI50", "setting": "UO-31 renal", "result": 1530, "unit": "nM"}, {"measurement": "TGI", "setting": "UO-31 renal", "result": 11.7, "unit": "µM"}, {"measurement": "GI50", "setting": "RPMI-8226 leukemia", "result": 583, "unit": "nM"}, {"measurement": "TGI", "setting": "RPMI-8226 leukemia", "result": 8.52, "unit": "µM"}, {"measurement": "GI50", "setting": "ACHN renal", "result": 2080, "unit": "nM"}, {"measurement": "TGI", "setting": "ACHN renal", "result": 54.2, "unit": "µM"}, {"measurement": "GI50", "setting": "SR leukemia", "result": 1790, "unit": "nM"}, {"measurement": "TGI", "setting": "SR leukemia", "result": 28.4, "unit": "µM"}, {"measurement": "GI50", "setting": "IGROV1 ovarian", "result": 1840, "unit": "nM"}, {"measurement": "TGI", "setting": "IGROV1 ovarian", "result": "> 100", "unit": "µM"}]}, {"smiles": "CCCCN(CCCC)C(=O)/C(CC(=O)c1cccc2ccccc12)=N\\NC(=O)c1cc2ccccc2cc1O", "values": [{"measurement": "TGI", "setting": "SNB-19 CNS", "result": "> 100", "unit": "µM"}, {"measurement": "TGI", "setting": "HL-60(TB) leukemia", "result": 16.5, "unit": "µM"}, {"measurement": "TGI", "setting": "HOP-92 NSCLC", "result": 56.8, "unit": "µM"}, {"measurement": "TGI", "setting": "COLO 205 colon", "result": 56.3, "unit": "µM"}, {"measurement": "TGI", "setting": "UO-31 renal", "result": 37.3, "unit": "µM"}, {"measurement": "TGI", "setting": "KM20L2 colon", "result": 51.3, "unit": "µM"}, {"measurement": "TGI", "setting": "RPMI-8226 leukemia", "result": 21.5, "unit": "µM"}, {"measurement": "TGI", "setting": "ACHN renal", "result": 78.7, "unit": "µM"}, {"measurement": "TGI", "setting": "IGROV1 ovarian", "result": 71.3, "unit": "µM"}]}]}
